{"source": "patent US20240228542A1", "about": "“LYTIC DOMAIN FUSION CONSTRUCTS, CHECKPOINT INHIBITORS, AND METHODS OF MAKING AND USING SAME” (A28 Therapeutics Inc., priority 2020, published 2024)", "key": {"LNCaP": {"tested_on": "LNCaP", "assay": "Cytotoxicity in LNCaP prostate cancer cells", "type": "cell-based", "settings": "LNCaP prostate cancer cell line; read-out: IC50 in Human Cancer Cell Lines", "protocol": "(§1) MDA-MB-435S.luc cells were grown in Leibovitz's L 15 medium, 10% fetal bovine serum, 0.01 mg/ml bovine insulin, 100 IU/ml penicillin, 100 microg/ml streptomycin. The cells were cultured in tight closed flasks. The incubations were conducted using 96 well plates at 10,000 cells per well. Cells were typically seeded into 96 well plates and media was replaced after 48 hours of incubation. Each assay was conducted at increasing concentrations of 0, 0.001, 0.01, 0.05, 0.1, 0.5, 1, 2, 5, 10 and 100 micromolar doses of lytic peptide-binding domain conjugate. Each lytic peptide-binding domain conjugate provided in lyophilized form and was freshly dissolved in saline and added to cells. The duration of incubation was typically 24 h, and cell viability assays were conducted using formazan conversion assays (MTT assay). Controls contained saline or 0.1% triton as reference for 0 and 100% cell death, respectively.\n(§2) To ascertain the IC50 of various fusion constructs on different human cancer cell lines compared to cisplatinum, IC50 of fusion constructs were evaluated as in Table 3."}, "ID8 ovarian cancer cells": {"tested_on": "ID8 ovarian cancer cells", "assay": "Cytokine and chemokine secretion by ID8 cells (array, RT-PCR, ELISA)", "type": "cell-based, murine", "protocol": "Cytokine Array—Supernatant from cultured cells was stored at −20° C. for batch analyses to measure cytokines. The mouse cytokine array (R&D Systems, Inc.) was purchased and used to detect the secretion of 111 cytokines in the experiments groups. These Proteome Profiler Arrays were performed according to the manufacturer's protocol.\nThe effect of EP-100 on cytokines and chemokines was analyzed using a proteome profiler murine cytokine array in the CD8^+ T cell activation in ID8 ovarian cancer cells. […] LIF and CXCL10 secretion were decreased after treatment with EP-100 for 4 hours. LDL receptor secretion was increased by EP-100 at 2 hours and 12 hours, while IL1α, CCL20, VEGF, and IL33 were secreted after EP-100 treatment (FIG. 19 B). Among the cytokines, IL33 inhibited tumor growth and modified the tumor microenvironment. Using RT-PCR and ELISA the induction of IL33 through EP-100 was analyzed. IL33 mRNA expression was increased in 30 minutes after EP-100 treatment, and secretion was increased after 2 hours of EP-100 treatment, and this effect continued through 12 hours (FIGS. 19C and 19D). […] To determine the IL33 role in the tumor microenvironment, we tested the IL33 effect on T cell differentiation in vitro. We isolated naïve CD4^+ T cells from mouse […], and further cultured for 5 days in CD3 and CD28, and mouse IL-2 containing media to differentiated CD8^+ T cell. LHRH-R mRNA expression and EP-100-induced cytoic effect was lower in both naïve T cells and CD8^+ T cells than in ID8 cells (FIGS. 20A and 20B)."}, "SKOV-3": {"tested_on": "SKOV-3", "assay": "Cytotoxicity in SKOV-3 ovarian cancer cells", "type": "cell-based", "settings": "SKOV-3 ovarian cancer cell line; read-out: IC50 in Human Cancer Cell Lines", "protocol": "as §1, §2"}, "ID8": {"tested_on": "ID8", "assay": "Cytotoxicity in ID8 murine ovarian cancer cells (24 h)", "type": "cell-based", "settings": "ID8, 24 h; read-out: In vitro activity (IC50)", "protocol": "Murine ovarian cancer cell lines (ID8, IG10, IF5, and 2Cl2) were grown in RPMI 1640 media with 10% Fetal Bovine Serum. Cells were typically seeded (3000 cells per well) into 96 well plates and media was replaced after 48 hours of incubation. […] Phor18-LHRH was provided in lyophilized form was dissolved in saline and added to cells. The duration of incubation was 24 h at 37° C. Cell viability was assessed after 24 hours using a luminometric assays (Promega, CellTiter-0Glo 2.0, G9243). Controls contained saline or 0.1% triton as reference for 0 and 100% cell death, respectively.\nData were processed and analyzed using GraphPad Prism version 7.00 for Windows (GraphPad Software, San Diego California). Statistical analysis for significance was determined by a two-tailed Student's T-test. Each study was conducted to achieve an […] of at least 6.\nIn vitro activities were expressed as IC50 values for each cell line, time point and compound tested that were calculated using the Hill equation (Graph Pad Prizm software)."}, "OVCAR-3": {"tested_on": "OVCAR-3", "assay": "Cytotoxicity in OVCAR-3 ovarian cancer cells", "type": "cell-based", "settings": "OVCAR-3 ovarian cancer cell line; read-out: IC50 in Human Cancer Cell Lines", "protocol": "as §1, §2"}, "AN3-CA": {"tested_on": "AN3-CA", "assay": "Cytotoxicity in AN3-CA endometrial cancer cells", "type": "cell-based", "settings": "AN3-CA endometrial cancer cell line; read-out: IC50 in Human Cancer Cell Lines", "protocol": "as §1, §2"}, "immune cells in tumor": {"tested_on": "immune cells in tumor", "assay": "Immune cell profiling (FACS) of ID8 tumors", "type": "in vivo, C57BL/6 mice", "protocol": "Immune Profiling Assay—Immunophenotypic analyses of splenocytes and single cell suspensions from tumors were assessed by flow cytometry. Abs to stain for MDSCs were CD11b-APC (clone M1/70; BD Biosciences), Ly6G-FITC (clone 1A8; BD Biosciences) and Ly6C-PE (clone AL-21; BD Biosciences). For T-cell activation markers, cells were stained with Ab specific for CD4-PE-Cy7 (clone RM4-5; BD Biosciences), CD8-PE-Cy7 (clone 53-6.7; BD Biosciences), CD62L-PE (clone MEL-14; BD Biosciences) and CD44-FITC (clone IM7; Biolegend). Cells were incubated on ice for 30 min, washed and fixed in phosphate buffered saline (PBS) containing 1% formalin for flow cytometric analysis on an LSRII flow cytometer (BD Biosciences).\nImmune cell profiling was conducted on ascites (N=3) and tumor tissue (N=3) by processing the samples by the following method and analyzed through Fluorescent Activated Cell Sorting (FACS), see Table 8. Cells were incubated for 30 minutes on ice, washed and fixed in phosphate buffered saline containing 1% formalin for flow cytometric analysis on an LSRII flow cytometer."}, "[1]": {"tested_on": "murine ovarian cancer cells", "assay": "EP-100 cytotoxicity and LHRH-R specificity in murine ovarian cancer cells", "type": "cell-based", "settings": "ID8 cells, EP-100, 24 hr", "from_the_text": "To identify the direct effects of EP-100 on cancer cells, murine ovarian cancer cell lines were used for in vitro experiments. […] The level of expression of LHRH-R in murine ovarian cancer cells using RT-PCR and Western blot analysis. […] Indeed, LHRH-R was expressed mainly on the membrane of cancer cells (FIGS. 14D and 14E). Human SKOV3ipl ovarian cancer cells and immortalized murine 3T3 fibroblasts were used as negative controls.\nTo determine whether the antitumor EP-100 efficacy was specific to LHRH-R expression, we silenced LHRH-R using siRNA (FIG. 15A). […]."}}, "data": [{"sequence": "KFAKFAKKFAKFAKKFAKQHWSYGLRPG [Phor18-LHRH]", "values": [{"measurement": "IC50", "setting": "LNCaP", "value": "1550 ± 80", "unit": "nM"}, {"measurement": "time to increased IL33 secretion", "setting": "ID8 ovarian cancer cells; ID8 cells, ELISA, continued through 12 hours", "value": 2, "unit": "h"}, {"measurement": "time to increased IL33 mRNA expression", "setting": "ID8 ovarian cancer cells; ID8 cells, RT-PCR", "value": 30, "unit": "min"}, {"measurement": "secretion of cytokines and chemokines (array)", "setting": "ID8 ovarian cancer cells; ID8 cells, LIF, CXCL10, IL1α, CCL20, VEGF, IL33, LDL receptor", "value": "increased secretion of various molecules"}, {"measurement": "IL33 secretion", "setting": "ID8 ovarian cancer cells; in vitro, FIG. 19D", "value": "IL33 secretion was increased by EP-100"}, {"measurement": "IC50", "setting": "SKOV-3", "value": "11800 ± 300", "unit": "nM"}, {"measurement": "IC50", "setting": "ID8", "value": 1370, "unit": "nM"}, {"measurement": "IC50", "setting": "OVCAR-3", "value": 3000, "unit": "nM"}, {"measurement": "IC50", "setting": "AN3-CA", "value": "3800 ± 80", "unit": "nM"}, {"measurement": "increase of CD8+ T/Treg ratio", "setting": "immune cells in tumor; tumor (tumor and ascites)", "value": 8, "unit": "fold"}, {"measurement": "Regulatory T cells (Treg)", "setting": "immune cells in tumor; tumor, % of CD45+ cells, controls 1.14±0.09%", "value": "0.95±0.15", "unit": "%"}, {"measurement": "Monocytic myeloid suppressor cells (mMDSC)", "setting": "immune cells in tumor; tumor, % of CD45+ cells, controls 1.5±0.006%", "value": "1.015±0.15", "unit": "%"}, {"measurement": "Macrophages", "setting": "immune cells in tumor; tumor, % of CD45+ cells, controls 1.6±0.05%", "value": "10.1±0.13", "unit": "%"}, {"measurement": "Dendritic cells (DC)", "setting": "immune cells in tumor; tumor, % of CD45+ cells, controls 1.88±0.03%", "value": "5.12±0.34", "unit": "%"}, {"measurement": "CD8+ T cells", "setting": "immune cells in tumor; tumor, % of CD45+ cells, controls 2.6±0.4%", "value": "15.5±0.8", "unit": "%"}, {"measurement": "Natural killer (NK) cells", "setting": "immune cells in tumor; tumor, % of CD45+ cells, controls 3.76±[…]", "value": "10.67±1.4", "unit": "%"}, {"measurement": "B cells", "setting": "immune cells in tumor; tumor, % of CD45+ cells, controls 12.14±0.9%", "value": "10.1±2.4", "unit": "%"}, {"measurement": "CD45+ cell fraction of live cells", "setting": "immune cells in tumor; tumor, Mean±SEM, controls 8.16±[…]", "value": "26.1±5.2", "unit": "%"}, {"measurement": "ratio of CD8+ T cells to regulatory T cells", "setting": "immune cells in tumor; tumor, controls 2.27±0.26", "value": "15.5±2.5"}, {"measurement": "viability of cells in which LHRH-R was silenced (siRNA)", "setting": "[1]", "value": "remained viable"}]}]}
